Test results published in patent publication US10544150B2, “NK-3 receptor selective antagonist compounds, pharmaceutical composition and methods for use in NK-3 receptors mediated disorders” (Ogeda SA, priority 2010, dated 2020).

Each compound was assayed against human NK-3 receptor (Homo sapiens (Human), UniProt P29371) (assay: 3H-SB222200 binding competition assay with human NK-3 receptor). Conditions: 3H-SB222200 displacement, CHO cell membranes expressing human NK3 receptor; read-out: Ki range.
Protocol: The affinity of compounds of the invention for the tachykinin receptors was determined by measuring the ability of the compounds of the invention to displace a radiolabeled ligand from its specifics binding site.
^3H-SB222200 Binding Competition Assay with Human NK-3 Receptor
The ability of the compounds of the invention to inhibit the binding of the NK-3 receptor selective antagonist SB222200 was assessed by an in vitro radioligand binding assay. Membranes were prepared from Chinese hamster ovary recombinant cells which express the human NK3 receptor. The membranes were incubated with 5 nM ^3H-SB222200_(ARC) in a HEPES 25 mM/NaCl 0.1M/CaCl2 1 mM/MgCl2 5 Mm/BSA 0.5%/Saponin 10 μg/ml buffer at pH 7.4 and various concentrations of the compounds of the invention. The amount of tritiated SB222200 bound to the receptor was determined after filtration by the quantification of membrane associated radioactivity using the TopCount-NXT reader (Packard). […] In Table 3 biological results obtained using the ^3H-SB222200 binding competition assay with compounds of the invention are set out in tabulated form. In this table the calculated Ki is given. The Ki value obtained (in accordance with the protocol set forth above) is represented as follows: “+++” means Ki<500 nM; “++” means 500 nM≤Ki≤1 μM; “+” means 1 μM<Ki≤5 μM; “#” means Ki>5 μM.

Sequence of human NK-3 receptor (P29371 whole entry): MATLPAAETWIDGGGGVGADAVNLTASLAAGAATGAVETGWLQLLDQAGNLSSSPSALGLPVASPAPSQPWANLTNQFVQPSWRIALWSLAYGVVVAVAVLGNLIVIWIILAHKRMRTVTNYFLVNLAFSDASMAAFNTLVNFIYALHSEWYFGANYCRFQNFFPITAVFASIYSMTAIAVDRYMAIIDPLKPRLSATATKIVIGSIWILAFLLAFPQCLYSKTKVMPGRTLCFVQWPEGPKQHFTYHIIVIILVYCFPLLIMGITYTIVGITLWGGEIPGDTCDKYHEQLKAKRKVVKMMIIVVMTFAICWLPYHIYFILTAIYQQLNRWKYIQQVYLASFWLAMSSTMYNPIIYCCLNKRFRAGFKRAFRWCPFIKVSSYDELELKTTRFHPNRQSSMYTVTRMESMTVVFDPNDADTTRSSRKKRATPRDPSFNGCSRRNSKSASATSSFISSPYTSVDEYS

| Ki | SMILES |
| --- | --- |
| > 5000 nM | COCC1CCCCN1c1nc(-c2nnc3n2CCN(C(=O)c2ccc(F)cc2)C3)cs1 (centres unmarked) [Compound 277, (4-fluorophenyl)(3-(2-(2-(methoxymethyl)piperidin-1-yl)thiazol-4-yl)-5,6-dihydro-[1,2,4]triazolo[4,3-a]pyrazin-7(8H)-yl)methanone] |
| 1000 to 5000 nM | Cn1nc(-c2ccccc2)cc1-c1nnc2n1CCN(C(=O)c1ccc(F)cc1)C2 [Compound 225, (4-fluorophenyl)(3-(1-methyl-3-phenyl-1H-pyrazol-5-yl)-5,6-dihydro-[1,2,4]triazolo[4,3-a]pyrazin-7(8H)-yl)methanone] |
| < 500 nM | CC1c2nnc(-c3csc(-c4ccc(F)cc4)n3)n2CCN1C(=O)c1ccc(F)cc1 (centres unmarked) [Compound 70, (4-fluorophenyl)(3-(2-(4-fluorophenyl)thiazol-4-yl)-8-methyl-5,6-dihydro-[1,2,4]triazolo[4,3-a]pyrazin-7(8H)-yl)methanone] |
| < 500 nM | O=C(c1ccc(F)cc1)N1CCn2c(nnc2-c2nc(-c3ccccc3)cs2)C1 [Compound 57, (4-fluorophenyl)(3-(4-phenylthiazol-2-yl)-5,6-dihydro-[1,2,4]triazolo[4,3-a]pyrazin-7(8H)-yl)methanone] |
| < 500 nM | O=C(c1ccc(F)cc1)N1CCn2c(nnc2-c2nc3c(s2)CCCC3)C1 [Compound 27, (4-fluorophenyl)(3-(4,5,6,7-tetrahydrobenzo[d]thiazol-2-yl)-5,6-dihydro-[1,2,4]triazolo[4,3-a]pyrazin-7(8H)-yl)methanone] |
| < 500 nM | COCCC1CN(c2nc(-c3nnc4n3CCN(C(=O)c3ccc(-c5cccs5)cc3)C4)cs2)CCO1 (centres unmarked) [Compound 257, (3-(2-(2-(2-methoxyethyl)morpholino)thiazol-4-yl)-5,6-dihydro-[1,2,4]triazolo[4,3-a]pyrazin-7(8H)-yl)(4-(thiophen-2-yl)phenyl)methanone] |
| < 500 nM | CC1c2nnc(-c3coc(-c4ccccc4)n3)n2CCN1C(=O)c1ccc(-c2ccccc2)cc1 (centres unmarked) [Compound 49, [1,1′-biphenyl]-4-yl(8-methyl-3-(2-phenyloxazol-4-yl)-5,6-dihydro-[1,2,4]triazolo[4,3-a]pyrazin-7(8H)-yl)methanone] |
| 500 to 1000 nM | Cc1nc(-c2ccccc2)sc1-c1nnc2n1CCN(C(=O)c1ccc(F)cc1)C2C (centres unmarked) [Compound 75, (4-fluorophenyl)(8-methyl-3-(4-methyl-2-phenylthiazol-5-yl)-5,6-dihydro-[1,2,4]triazolo[4,3-a]pyrazin-7(8H)-yl)methanone] |
| < 500 nM | O=C(c1ccc(-c2cccs2)cc1)N1CCn2c(nnc2-c2csc(-c3ccccn3)n2)C1 [Compound 224, (3-(2-(pyridin-2-yl)thiazol-4-yl)-5,6-dihydro-[1,2,4]triazolo[4,3-a]pyrazin-7(8H)-yl)(4-(thiophen-2-yl)phenyl)methanone] |
| 1000 to 5000 nM | O=C(c1cnc(-c2ccccc2)nc1)N1CCn2c(nnc2-c2ccc3ccccc3n2)C1 [Compound 92, (2-phenylpyrimidin-5-yl)(3-(quinolin-2-yl)-5,6-dihydro-[1,2,4]triazolo[4,3-a]pyrazin-7(8H)-yl)methanone] |
| < 500 nM | O=C(c1ccc(F)cc1)N1CCn2c(-c3csc(-c4ccccc4)n3)nnc2C1CCO (centres unmarked) [Compound 51, (4-fluorophenyl)(8-(2-hydroxyethyl)-3-(2-phenylthiazol-4-yl)-5,6-dihydro-[1,2,4]triazolo[4,3-a]pyrazin-7(8H)-yl)methanone] |
| 500 to 1000 nM | NCCOc1ccccc1-c1nc(-c2nnc3n2CCN(C(=O)c2ccc(-c4cccs4)cc2)C3)cs1 [Compound 282, (3-(2-(2-(2-aminoethoxy)phenyl)thiazol-4-yl)-5,6-dihydro-[1,2,4]triazolo[4,3-a]pyrazin-7(8H)-yl)(4-(thiophen-2-yl)phenyl)methanone] |
| 1000 to 5000 nM | O=C(c1cc(-c2ccc(Cl)cc2)n[nH]1)N1CCn2c(nnc2-c2ccccn2)C1 [Compound 3, (3-(4-chlorophenyl)-1H-pyrazol-5-yl)(3-(pyridin-2-yl)-5,6-dihydro-[1,2,4]triazolo[4,3-a]pyrazin-7(8H)-yl)methanone] |
| 500 to 1000 nM | C[C@H]1c2nnc(-c3ccc4ccccc4n3)n2CCN1C(=O)c1ccc(-c2cccs2)cc1 [Compound 163, (S)-(8-methyl-3-(quinolin-2-yl)-5,6-dihydro-[1,2,4]triazolo[4,3-a]pyrazin-7(8H)-yl)(4-(thiophen-2-yl)phenyl)methanone] |
| < 500 nM | O=C(c1ccc(-c2cccs2)cc1)N1CCn2c(nnc2-c2csc(-c3ccncc3)n2)C1 [Compound 228, (3-(2-(pyridin-4-yl)thiazol-4-yl)-5,6-dihydro-[1,2,4]triazolo[4,3-a]pyrazin-7(8H)-yl)(4-(thiophen-2-yl)phenyl)methanone] |
| 500 to 1000 nM | C[C@H]1c2nnc(-c3csc(N4CCOCC4)n3)n2CCN1C(=O)c1ccc(-c2cccs2)cc1 [Compound 227, (S)-(8-methyl-3-(2-morpholinothiazol-4-yl)-5,6-dihydro-[1,2,4]triazolo[4,3-a]pyrazin-7(8H)-yl)(4-(thiophen-2-yl)phenyl)methanone] |
| 500 to 1000 nM | O=C(c1ccc(F)cc1)N1CCn2c(nnc2-c2cc(-c3ccccc3)n[nH]2)C1 [Compound 269, (4-fluorophenyl)(3-(3-phenyl-1H-pyrazol-5-yl)-5,6-dihydro-[1,2,4]triazolo[4,3-a]pyrazin-7(8H)-yl)methanone] |
| < 500 nM | CC1c2nnc(-c3csc(N4CCOCC4)n3)n2CCN1C(=O)c1ccc(F)cc1 (centres unmarked) [Compound 52, (4-fluorophenyl)(8-methyl-3-(2-morpholinothiazol-4-yl)-5,6-dihydro-[1,2,4]triazolo[4,3-a]pyrazin-7(8H)-yl)methanone] |
| < 500 nM | O=C(c1ccc(F)cc1)N1CCn2c(nnc2-c2nc3ccccc3s2)C1 [Compound 59, (3-(benzo[d]thiazol-2-yl)-5,6-dihydro-[1,2,4]triazolo[4,3-a]pyrazin-7(8H)-yl)(4-fluorophenyl)methanone] |
| 500 to 1000 nM | COCCn1nc(-c2ccccc2)cc1-c1nnc2n1CCN(C(=O)c1ccc(F)cc1)C2 [Compound 255, (4-fluorophenyl)(3-(1-(2-methoxyethyl)-3-phenyl-1H-pyrazol-5-yl)-5,6-dihydro-[1,2,4]triazolo[4,3-a]pyrazin-7(8H)-yl)methanone] |
| 1000 to 5000 nM | O=C(c1ccc(Cl)cc1)N1CCn2c(nnc2-c2ccccn2)C1 [Compound 2, (4-chlorophenyl)(3-(pyridin-2-yl)-5,6-dihydro-[1,2,4]triazolo[4,3-a]pyrazin-7(8H)-yl)methanone] |
| 1000 to 5000 nM | O=C(c1ccc(F)cc1)N1CCn2c(nnc2-c2csc(-c3cccc(F)c3)n2)C1 [Compound 206, (4-fluorophenyl)(3-(2-(3-fluorophenyl)thiazol-4-yl)-5,6-dihydro-[1,2,4]triazolo[4,3-a]pyrazin-7(8H)-yl)methanone] |
| 1000 to 5000 nM | Cn1nc(-c2ccc(Cl)c(Cl)c2)cc1C(=O)N1CCn2c(nnc2-c2ccccn2)C1 [Compound 14, (3-(3,4-dichlorophenyl)-1-methyl-1H-pyrazol-5-yl)(3-(pyridin-2-yl)-5,6-dihydro-[1,2,4]triazolo[4,3-a]pyrazin-7(8H)-yl)methanone] |
| < 500 nM | C[C@H]1c2nnc(-c3nc(-c4ccc(F)cc4)no3)n2CCN1C(=O)c1ccc(-c2cccs2)cc1 [Compound 168, (S)-(3-(3-(4-fluorophenyl)-1,2,4-oxadiazol-5-yl)-8-methyl-5,6-dihydro-[1,2,4]triazolo[4,3-a]pyrazin-7(8H)-yl)(4-(thiophen-2-yl)phenyl)methanone] |
| 1000 to 5000 nM | O=C(c1ccc(-c2ccc(F)cc2)cc1)N1CCn2c(nnc2-c2csc(Cn3cnc(Cl)c3Cl)n2)C1 [Compound 187, (3-(2-((4,5-dichloro-1H-imidazol-1-yl)methyl)thiazol-4-yl)-5,6-dihydro-[1,2,4]triazolo[4,3-a]pyrazin-7(8H)-yl)(4′-fluoro-[1,1′-biphenyl]-4-yl)methanone] |
| < 500 nM | COc1ccc(-c2nc(-c3nnc4n3CCN(C(=O)c3ccc(F)cc3)C4)cs2)cc1OC [Compound 40, (3-(2-(3,4-dimethoxyphenyl)thiazol-4-yl)-5,6-dihydro-[1,2,4]triazolo[4,3-a]pyrazin-7(8H)-yl)(4-fluorophenyl)methanone] |
| < 500 nM | CC1CN(c2nc(-c3nnc4n3CCN(C(=O)c3ccc(-c5cccs5)cc3)C4)cs2)C(C)CO1 (centres unmarked) [Compound 261, (3-(2-(2,5-dimethylmorpholino)thiazol-4-yl)-5,6-dihydro-[1,2,4]triazolo[4,3-a]pyrazin-7(8H)-yl)(4-(thiophen-2-yl)phenyl)methanone] |
| < 500 nM | CC1c2nnc(-c3csc(-c4ccc(F)cc4)n3)n2CCN1C(=O)c1cc(F)c(F)c(F)c1 (centres unmarked) [Compound 113, (3-(2-(4-fluorophenyl)thiazol-4-yl)-8-methyl-5,6-dihydro-[1,2,4]triazolo[4,3-a]pyrazin-7(8H)-yl)(3,4,5-trifluorophenyl)methanone] |
| < 500 nM | O=C(c1ccc(-c2cccs2)cc1)N1CCn2c(nnc2-c2nc(-c3ccc(F)cc3)no2)C1 [Compound 176, (3-(3-(4-fluorophenyl)-1,2,4-oxadiazol-5-yl)-5,6-dihydro-[1,2,4]triazolo[4,3-a]pyrazin-7(8H)-yl)(4-(thiophen-2-yl)phenyl)methanone] |
